Results as given in ChEMBL document CHEMBL4706610, “Hydroxypyridinone-Based Iron Chelators with Broad-Ranging Biological Activities” (J Med Chem, 2020).
In brackets after ≈: the same amount, converted by molar mass. Blank lines part the entries; values can stand above or below the compound they belong to.

Legend:
[1] = Binding affinity to iron assessed as pFe3+ at pH 7.4 by spectrophotometric method
Plasmodium falciparum [2] = experiment: Antiplasmodial activity against chloroquine-sensitive Plasmodium falciparum D10 incubated for 48 hrs by parasite lactate dehydrogenase assay; assay type: functional, organism-based; details: D10, 48 h
Plasmodium falciparum [3] = experiment: Antiplasmodial activity against chloroquine-resistant Plasmodium falciparum K1 incubated for 48 hrs by parasite lactate dehydrogenase assay; assay type: functional, organism-based; details: K1, 48 h
Plasmodium falciparum [4] = experiment: Antiplasmodial activity against chloroquine-resistant Plasmodium falciparum Dd2 incubated for 48 hrs by parasite lactate dehydrogenase assay; assay type: functional, organism-based; details: Dd2, 48 h
Plasmodium falciparum [5] = experiment: Antiplasmodial activity against chloroquine-sensitive Plasmodium falciparum 3D7 incubated for 48 hrs by parasite lactate dehydrogenase assay; assay type: functional, organism-based; details: 3D7, 48 h
[6] = Electrochemical behavior of the compound assessed as redox potential; assay type: physicochemical
Pseudomonas aeruginosa = experiment: Antibacterial activity against Pseudomonas aeruginosa incubated for 2 hrs followed by sterilized TSB addition and measured after 24 hrs by visual inspection; assay type: functional; details: time 26 hrs
[7] = Antioxidant activity assessed as DPPH radical scavenging activity incubated for 30 mins by absorbance method; assay type: functional
Acetylcholinesterase [8] = biological target: T1, Acetylcholinesterase (Electrophorus electricus, UniProt O42275); experiment: Inhibition of electric eel AChE using acetylthiocholine iodide as substrate preincubated for 15 mins followed by substrate addition and measured for 5 mins by Ellman's reagent based UV-Vis spectrophotometric method
T1 sequence (O42275 whole entry): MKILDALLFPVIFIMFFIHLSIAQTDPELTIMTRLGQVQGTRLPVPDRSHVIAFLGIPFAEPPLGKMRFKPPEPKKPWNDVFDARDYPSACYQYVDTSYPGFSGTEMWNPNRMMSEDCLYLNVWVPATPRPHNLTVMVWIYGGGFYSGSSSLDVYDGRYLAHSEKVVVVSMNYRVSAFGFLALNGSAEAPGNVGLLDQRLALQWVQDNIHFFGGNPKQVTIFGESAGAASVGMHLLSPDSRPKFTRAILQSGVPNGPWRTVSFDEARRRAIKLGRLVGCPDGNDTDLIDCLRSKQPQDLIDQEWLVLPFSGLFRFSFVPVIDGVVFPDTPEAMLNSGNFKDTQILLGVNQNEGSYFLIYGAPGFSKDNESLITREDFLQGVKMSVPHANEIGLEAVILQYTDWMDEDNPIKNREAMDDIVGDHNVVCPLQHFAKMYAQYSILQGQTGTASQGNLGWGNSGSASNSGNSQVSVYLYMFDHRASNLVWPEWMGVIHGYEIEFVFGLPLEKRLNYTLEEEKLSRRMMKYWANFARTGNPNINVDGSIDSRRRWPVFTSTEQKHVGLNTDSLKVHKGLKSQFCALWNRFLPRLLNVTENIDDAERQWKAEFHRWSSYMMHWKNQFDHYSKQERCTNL

[9] = biological target: T2, Amyloid-beta precursor protein (Homo sapiens, UniProt P05067); experiment: Inhibition of self-induced amyloid beta (1 to 42) (unknown origin) aggregation measured after 24 hrs by ThT fluorescence assay relative to control; details: concentration not given here
T2 sequence (P05067 whole entry): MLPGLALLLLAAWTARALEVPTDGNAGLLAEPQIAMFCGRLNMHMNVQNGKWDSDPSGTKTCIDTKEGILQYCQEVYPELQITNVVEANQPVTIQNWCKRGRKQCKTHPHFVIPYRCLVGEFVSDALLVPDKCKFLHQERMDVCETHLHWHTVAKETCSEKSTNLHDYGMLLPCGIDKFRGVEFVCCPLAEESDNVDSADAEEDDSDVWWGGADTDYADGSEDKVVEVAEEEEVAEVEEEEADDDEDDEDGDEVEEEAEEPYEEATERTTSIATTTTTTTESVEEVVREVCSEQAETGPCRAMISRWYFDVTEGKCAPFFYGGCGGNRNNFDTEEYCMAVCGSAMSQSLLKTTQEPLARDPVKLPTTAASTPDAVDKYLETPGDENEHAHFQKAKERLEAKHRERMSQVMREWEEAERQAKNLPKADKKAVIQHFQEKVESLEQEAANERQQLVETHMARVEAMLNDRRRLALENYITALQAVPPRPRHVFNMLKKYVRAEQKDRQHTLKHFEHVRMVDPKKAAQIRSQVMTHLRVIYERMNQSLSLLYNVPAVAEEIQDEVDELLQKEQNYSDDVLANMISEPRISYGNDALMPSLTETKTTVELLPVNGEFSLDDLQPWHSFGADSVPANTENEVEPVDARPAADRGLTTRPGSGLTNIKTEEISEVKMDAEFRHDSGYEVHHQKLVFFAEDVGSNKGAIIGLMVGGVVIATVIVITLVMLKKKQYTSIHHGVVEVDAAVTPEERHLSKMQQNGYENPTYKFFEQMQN

[10] = biological target: T2, Amyloid-beta precursor protein; experiment: Inhibition of self-induced amyloid beta (1 to 42) (unknown origin) aggregation by ThT fluorescence assay relative to control; details: concentration not given here
[11] = Antioxidant activity assessed as ABTS radical scavenging activity by trolox-equivalent antioxidant capacity assay; assay type: functional
[12] = biological target: T2, Amyloid-beta precursor protein; experiment: Inhibition of self-induced amyloid beta (1 to 42) (unknown origin) aggregation by ThT fluorescence assay
[13] = Binding affinity to Fe3+ assessed as pFe by UV-Vis spectrophotometric method
[14] = biological target: T2, Amyloid-beta precursor protein; experiment: Inhibition of human amyloid beta (1 to 42) aggregation incubated for 24 hrs by ThT fluorescence assay; details: concentration not given here
Acetylcholinesterase [15] = biological target: Acetylcholinesterase (Torpedo californica, UniProt P04058); experiment: Inhibition of Torpedo californica AChE using acetylthiocholine iodide as substrate preincubated for 15 mins followed by substrate addition and measured for 5 mins; design: species or system Tetronarce californica
Chain of Acetylcholinesterase (Torpedo californica, UniProt P04058) (P04058 whole entry): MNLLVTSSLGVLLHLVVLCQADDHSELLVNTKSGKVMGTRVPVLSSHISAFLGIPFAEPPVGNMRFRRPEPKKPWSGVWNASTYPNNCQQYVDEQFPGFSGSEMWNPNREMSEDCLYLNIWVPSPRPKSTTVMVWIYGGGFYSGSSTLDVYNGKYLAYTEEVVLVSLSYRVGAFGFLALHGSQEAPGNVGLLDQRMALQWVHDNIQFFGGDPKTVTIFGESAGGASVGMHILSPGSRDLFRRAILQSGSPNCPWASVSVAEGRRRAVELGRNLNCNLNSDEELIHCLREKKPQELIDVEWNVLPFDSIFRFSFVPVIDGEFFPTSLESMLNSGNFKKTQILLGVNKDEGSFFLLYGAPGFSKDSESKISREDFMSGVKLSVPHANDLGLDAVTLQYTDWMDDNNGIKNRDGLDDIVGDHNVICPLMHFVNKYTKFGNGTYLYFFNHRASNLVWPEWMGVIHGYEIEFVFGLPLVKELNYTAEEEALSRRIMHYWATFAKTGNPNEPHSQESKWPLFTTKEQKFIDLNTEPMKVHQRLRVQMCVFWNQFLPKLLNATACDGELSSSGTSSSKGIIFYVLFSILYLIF

[16] = tested on: Staphylococcus epidermidis; experiment: Antibacterial activity against Staphylococcus epidermidis incubated for 20 hrs by CLSI-based broth microdilution method; assay type: functional
Enterococcus faecalis = experiment: Antibacterial activity against Enterococcus faecalis incubated for 20 hrs by CLSI-based broth microdilution method; assay type: functional
Staphylococcus aureus [17] = experiment: Antibacterial activity against Staphylococcus aureus ATCC 25913 incubated for 20 hrs by CLSI-based broth microdilution method; assay type: functional
Enterococcus faecium = experiment: Antibacterial activity against Enterococcus faecium BM4105 incubated for 20 hrs by CLSI-based broth microdilution method; assay type: functional
[18] = Binding affinity to iron assessed as pFe3+ at pH 7.45
Rattus norvegicus = experiment: Iron scavenging activity in 59Fe-ferritin-loaded rat assessed as iron mobilization efficacy at 450 umol/kg, po dosed 1 hr after 59Fe-ferritin injection and measured 24 hrs after 59Fe-ferritin injection by gamma counting method relative to control; assay type: functional; details: dose 450 µmol/kg; time 23 hrs
Plasmodium falciparum [19] = experiment: Antiplasmodial activity against Plasmodium falciparum NF54 treated for 96 hrs with replacement of growth medium once a day for 4 days; assay type: functional, organism-based; details: NF54, 96 h
Escherichia coli = experiment: Antibacterial activity against Escherichia coli incubated for 2 hrs followed by sterilized TSB addition and measured after 24 hrs by visual inspection; assay type: functional; details: time 26 hrs
Bacillus subtilis = experiment: Antibacterial activity against Bacillus subtilis incubated for 2 hrs followed by sterilized TSB addition and measured after 24 hrs by visual inspection; assay type: functional; details: time 26 hrs
Staphylococcus aureus [20] = experiment: Antibacterial activity against Staphylococcus aureus incubated for 2 hrs followed by sterilized TSB addition and measured after 24 hrs by visual inspection; assay type: functional; details: time 26 hrs
[21] = tested on: Staphylococcus epidermidis; experiment: Antibacterial activity against Staphylococcus epidermis ATCC 12228 measured after 18 to 24 hrs by CLSI-based microdilution technique; assay type: functional; details: time 18-24 hrs
[22] = Octanol/water partition coefficient, log P of the compound shaken for 45 mins and measured after 15 mins; assay type: physicochemical; details: time 60 min
[23] = Binding affinity to iron assessed as pFe3+ by spectrophotometric method
Acetylcholinesterase [24] = biological target: T1, Acetylcholinesterase; experiment: Inhibition of electric eel AChE using acetylthiocholine iodide as substrate preincubated for 5 mins followed by substrate addition and measured after 2 mins by Ellman's method
[25] = Binding affinity to iron assessed as pFe3+
[26] = Binding affinity to Fe3+ assessed as pFe at by potentiometric/UV-Vis spectrophotometric method
[27] = Binding affinity to Cu2+ assessed as pCu at pH 7.4 by potentiometric/UV-Vis spectrophotometric method

SMILES: CCc1c(OCc2ccccc2)c(=O)ccn1CCCCCCNc1ccnc2cc(Cl)ccc12
IC50 (Plasmodium falciparum [2]): 0.122 µM | IC50 (Plasmodium falciparum [3]): 0.089 µM | IC50 (Plasmodium falciparum [4]): 0.076 µM | IC50 (Plasmodium falciparum [5]): 0.041 µM

SMILES: Oc1cccc2cccnc12 [OXYQUINOLINE]
Activity [6]: -150 mV

SMILES: CCn1ccc(=O)c(O)c1C(=O)NCCCC(CCCNC(=O)c1c(O)c(=O)ccn1CC)(CCCNC(=O)c1c(O)c(=O)ccn1CC)NC(=O)[C@@H](N)CC(C)C
MIC (Pseudomonas aeruginosa): 32 µg/mL (≈ 39.5 µM)

SMILES: CCCCn1ccc(=O)c(O)c1C(=O)NCCCC(CCCNC(=O)c1c(O)c(=O)ccn1CCCC)(CCCNC(=O)c1c(O)c(=O)ccn1CCCC)NC(=O)[C@@H](N)CC(C)C
MIC (Pseudomonas aeruginosa): 32 µg/mL (≈ 35.7 µM)

SMILES: Cc1c(OCc2ccccc2)c(=O)ccn1-c1ccc(CC(=O)NCc2ccc(-c3nc4ccccc4s3)cc2)cc1
IC50 [7]: > 1000 µM | IC50 (Acetylcholinesterase [8]): 13.8 µM | inhibition [9]: 68.9%

SMILES: CCc1c(O)c(=O)ccn1CCCn1cc(COc2cc3ccccc3oc2=O)nn1
Activity [13]: 17.1

SMILES: COc1cccc2cc(C(=O)NCCn3ccc(=O)c(OCc4ccccc4)c3C)oc12
inhibition [14]: 36.1% | EC50 [7]: > 1000 µM | IC50 (Acetylcholinesterase [15]): 76 µM

SMILES: CCn1ccc(=O)c(O)c1C(C)O (stereo not given)
Activity [18]: 21.4 | Efficacy (Rattus norvegicus): 54.5%

SMILES: C=CCN1C(c2ccccn2)CC(=O)C(C(=O)OC)C1c1ccccn1 (stereo not given)
IC50 (Plasmodium falciparum [19]): 1.4 µM

SMILES: CCCC(=O)NC(CCCNC(=O)c1c(O)c(=O)ccn1CCO)(CCCNC(=O)c1c(O)c(=O)ccn1CCO)CCCNC(=O)c1c(O)c(=O)ccn1CCO
MIC (Escherichia coli): 8 µg/mL (≈ 9.81 µM) | MIC (Bacillus subtilis): 8 µg/mL (≈ 9.81 µM) | MIC (Pseudomonas aeruginosa): 16 µg/mL (≈ 19.6 µM) | MIC (Staphylococcus aureus [20]): 8 µg/mL (≈ 9.81 µM)

SMILES: Cc1c(O)c(=O)ccn1CCCC(=O)N1CCCC1c1nc2ccccc2s1 (stereo not given)
IC50 [7]: 148 µM | Activity [1]: 19.2 | IC50 (Acetylcholinesterase [8]): 14.7 µM | inhibition [9]: 59.3%

SMILES: CN(C)c1ccc2c(-c3cc(NC(=S)NCCC(=O)NC(CCCNC(=O)c4[nH]ccc(=O)c4O)(CCCNC(=O)c4[nH]ccc(=O)c4O)CCCNC(=O)c4[nH]ccc(=O)c4O)ccc3C(=O)[O-])c3ccc(=[N+](C)C)cc-3oc2c1
MIC [21]: 16 µM (≈ 18.1 µg/mL)

SMILES: CC(=O)NCCCCCCn1ccc(=O)c(O)c1C
logP at 1 h [22]: 0.53 | Activity [23]: 20.3

SMILES: Cc1c(OC(N)=O)c(=O)ccn1-c1ccccc1
IC50 (Acetylcholinesterase [24]): 48.8 µM

SMILES: COc1cccc2cc(C(=O)NCCn3ccc(=O)c(O)c3C)oc12
inhibition [14]: 49.8% | EC50 [7]: 199 µM | IC50 (Acetylcholinesterase [15]): 246 µM | Activity [26]: 17.3 | Activity [27]: 6.5

SMILES: O=c1cc(CNCCCCCCNc2ccnc3cc(Cl)ccc23)n(C2CC2)cc1OCc1ccccc1
IC50 (Plasmodium falciparum [2]): 0.047 µM | IC50 (Plasmodium falciparum [3]): 0.505 µM | IC50 (Plasmodium falciparum [4]): 0.463 µM | IC50 (Plasmodium falciparum [5]): 0.064 µM

The next lines start with results.

Activity [1]: 19.4
SMILES: Cc1c(O)c(=O)ccn1CCCC(=O)NCc1ccc(Cc2nc3ccccc3s2)cc1

inhibition [10]: 78.3% | IC50 [12]: 5.06 µM
SMILES: O=c1cc(/C=C/c2nc3ccc(O)cc3s2)occ1O
Activity [11]: 6.03

MIC [16]: 11 µM | MIC (Enterococcus faecalis): 11 µM | MIC (Staphylococcus aureus [17]): 11 µM | MIC (Enterococcus faecium): 11 µM
SMILES: CCN(CC)c1ccc2c(-c3ccc(C(=O)NCc4c(O)c(=O)cc(C)n4C)cc3)c3ccc(=[N+](CC)CC)cc-3oc2c1

inhibition [10]: 65% | IC50 [12]: 7.05 µM
SMILES: O=c1cc(/C=C/c2nc3ccccc3o2)occ1O
Activity [11]: 4.29

Activity [13]: 19.8
SMILES: Cc1cc(=O)c(O)c(CO)n1CCCn1cc(COc2ccc3ccc(=O)oc3c2)nn1

Activity [25]: 15
SMILES: CN(C)C(=O)c1cccc(O)c1O

MIC (Escherichia coli): 8 µg/mL (≈ 11 µM) | MIC (Bacillus subtilis): 8 µg/mL (≈ 11 µM) | MIC (Pseudomonas aeruginosa): 16 µg/mL (≈ 22 µM) | MIC (Staphylococcus aureus [20]): 8 µg/mL (≈ 11 µM)
SMILES: CCCC(=O)NC(CCCNC(=O)c1c(O)c(=O)ccn1C)(CCCNC(=O)c1c(O)c(=O)ccn1C)CCCNC(=O)c1c(O)c(=O)ccn1C
